Assay results published in PubChem BioAssay AID2060331 (Molecular Pharmacology Branch, DTP, NCI, 2025).

Test system: Hs578T multi-cell spheroids, viability
Test: Anticancer human tumor Hs578T cell line growth inhibition [IpAb];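 note: drug exposure lasted 7 days before readout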
Conditions: for IC50: curve of first compound; for viability, T/C: stronger effect = lower value
Method in brief: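 Multi-cell spheroids of 60% tumour cells, 25% HUVEC and 15% MSC in ultra-low-attachment U-bottom wells, treated with agents combined with ipatasertib or abemaciclib. Half-log ranges top out near clinical Cmax, or 10 microM when Cmax is unknown.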

[1] = second compound 0.01 µM, first compound 0.0316 µM
[2] = second compound 0.01 µM, first compound 0.1 µM
[3] = second compound 0.01 µM, first compound 0.316 µM
[4] = second compound 0.01 µM, first compound 1 µM
[5] = second compound 0.01 µM, first compound 3.16 µM
[6] = second compound 0.01 µM, first compound 10 µM
[7] = second compound 0.0316 µM, first compound 0.0316 µM
[8] = second compound 0.0316 µM, first compound 0.1 µM
[9] = second compound 0.0316 µM, first compound 0.316 µM
[10] = second compound 0.0316 µM, first compound 1 µM
[11] = second compound 0.0316 µM, first compound 3.16 µM
[12] = second compound 0.0316 µM, first compound 10 µM
[13] = second compound 0.1 µM, first compound 0.0316 µM
[14] = second compound 0.1 µM, first compound 0.1 µM
[15] = second compound 0.1 µM, first compound 0.316 µM
[16] = second compound 0.1 µM, first compound 1 µM
[17] = second compound 0.1 µM, first compound 3.16 µM
[18] = second compound 0.1 µM, first compound 10 µM
[19] = second compound 0.316 µM, first compound 0.0316 µM
[20] = second compound 0.316 µM, first compound 0.1 µM
[21] = second compound 0.316 µM, first compound 0.316 µM
[22] = second compound 0.316 µM, first compound 1 µM
[23] = second compound 0.316 µM, first compound 3.16 µM
[24] = second compound 0.316 µM, first compound 10 µM
[25] = second compound 1 µM, first compound 0.0316 µM
[26] = second compound 1 µM, first compound 0.1 µM
[27] = second compound 1 µM, first compound 0.316 µM
[28] = second compound 1 µM, first compound 1 µM
[29] = second compound 1 µM, first compound 3.16 µM
[30] = second compound 1 µM, first compound 10 µM

SMILES: Cn1ncc(Cl)c1-c1cc(C(=O)NC(CN)Cc2cccc(F)c2)sc1Cl (stereo not given) + CCN1CCN(Cc2ccc(Nc3ncc(F)c(-c4cc(F)c5nc(C)n(C(C)C)c5c4)n3)nc2)CC1
- IC50 (second compound 0.01 µM): 1.41 µM
- IC50 (second compound 0.0316 µM): 1.33 µM
- IC50 (second compound 0.1 µM): 0.791 µM
- IC50 (second compound 0.316 µM): 0.829 µM
- IC50 (second compound 1 µM): 1.21 µM
- viability, T/C [1]: 92.1%
- viability, T/C [2]: 83.3%
- viability, T/C [3]: 67.1%
- viability, T/C [4]: 49.1%
- viability, T/C [5]: 46.8%
- viability, T/C [6]: 0.26%
- viability, T/C [7]: 86%
- viability, T/C [8]: 76.8%
- viability, T/C [9]: 65.2%
- viability, T/C [10]: 51.2%
- viability, T/C [11]: 42%
- viability, T/C [12]: 0.24%
- viability, T/C [13]: 80.5%
- viability, T/C [14]: 67.5%
- viability, T/C [15]: 52.9%
- viability, T/C [16]: 42.5%
- viability, T/C [17]: 42.5%
- viability, T/C [18]: 0.24%
- viability, T/C [19]: 81.2%
- viability, T/C [20]: 72%
- viability, T/C [21]: 56.7%
- viability, T/C [22]: 47.6%
- viability, T/C [23]: 33.9%
- viability, T/C [24]: 0.21%
- viability, T/C [25]: 90%
- viability, T/C [26]: 76.6%
- viability, T/C [27]: 67.3%
- viability, T/C [28]: 60.1%
- viability, T/C [29]: 7.93%
- viability, T/C [30]: 0.46%

SMILES: C=CC(=O)N1CCN(c2nc(=O)n(-c3c(C)ccnc3C(C)C)c3nc(-c4c(O)cccc4F)c(F)cc23)C(C)C1 (stereo not given) + CCN1CCN(Cc2ccc(Nc3ncc(F)c(-c4cc(F)c5nc(C)n(C(C)C)c5c4)n3)nc2)CC1
- IC50 (second compound 0.01 µM): > 10 µM
- IC50 (second compound 0.0316 µM): > 10 µM
- IC50 (second compound 0.1 µM): > 10 µM
- IC50 (second compound 0.316 µM): > 10 µM
- IC50 (second compound 1 µM): > 10 µM
- viability, T/C [1]: 97.5%
- viability, T/C [2]: 103%
- viability, T/C [3]: 101%
- viability, T/C [4]: 96.2%
- viability, T/C [5]: 98.8%
- viability, T/C [6]: 74.5%
- viability, T/C [7]: 96%
- viability, T/C [8]: 97.2%
- viability, T/C [9]: 100%
- viability, T/C [10]: 96%
- viability, T/C [11]: 92.3%
- viability, T/C [12]: 76.8%
- viability, T/C [13]: 92.5%
- viability, T/C [14]: 86.3%
- viability, T/C [15]: 94.1%
- viability, T/C [16]: 102%
- viability, T/C [17]: 92.5%
- viability, T/C [18]: 77.2%
- viability, T/C [19]: 93.2%
- viability, T/C [20]: 95.5%
- viability, T/C [21]: 98%
- viability, T/C [22]: 101%
- viability, T/C [23]: 92.8%
- viability, T/C [24]: 77.9%
- viability, T/C [25]: 104%
- viability, T/C [26]: 107%
- viability, T/C [27]: 112%
- viability, T/C [28]: 118%
- viability, T/C [29]: 101%
- viability, T/C [30]: 88.4%

SMILES: Cc1nc(NC(=O)N2CCCC2C(N)=O)sc1-c1ccnc(C(C)(C)C(F)(F)F)c1 (stereo not given) + CCN1CCN(Cc2ccc(Nc3ncc(F)c(-c4cc(F)c5nc(C)n(C(C)C)c5c4)n3)nc2)CC1
- IC50 (second compound 0.01 µM): 1.78 µM
- IC50 (second compound 0.0316 µM): 0.856 µM
- IC50 (second compound 0.1 µM): 0.804 µM
- IC50 (second compound 0.316 µM): 1.07 µM
- IC50 (second compound 1 µM): 1.23 µM
- viability, T/C [1]: 98.5%
- viability, T/C [2]: 87.2%
- viability, T/C [3]: 75.9%
- viability, T/C [4]: 61.1%
- viability, T/C [5]: 40.4%
- viability, T/C [6]: 11.9%
- viability, T/C [7]: 88.5%
- viability, T/C [8]: 72.3%
- viability, T/C [9]: 57.2%
- viability, T/C [10]: 51.2%
- viability, T/C [11]: 38.7%
- viability, T/C [12]: 11.7%
- viability, T/C [13]: 77%
- viability, T/C [14]: 68.4%
- viability, T/C [15]: 60.6%
- viability, T/C [16]: 43.9%
- viability, T/C [17]: 37.3%
- viability, T/C [18]: 11.4%
- viability, T/C [19]: 68.5%
- viability, T/C [20]: 66.7%
- viability, T/C [21]: 60.4%
- viability, T/C [22]: 47.7%
- viability, T/C [23]: 39.8%
- viability, T/C [24]: 17%
- viability, T/C [25]: 92.1%
- viability, T/C [26]: 83.3%
- viability, T/C [27]: 66.7%
- viability, T/C [28]: 56.5%
- viability, T/C [29]: 34%
- viability, T/C [30]: 23.5%
